The values below come from patent US20100210722A1, “COMPOSITION FOR PREVENTING OR TREATING LIPID METABOLIC DISORDERS COMPRISING FUCOXANTHIN OR MARINE PLANT EXTRACT CONTAINING SAME” (AMICOGEN, INC., priority 2007, published 2010).

Common to all, as to assay type: in vivo, C57BL/6N/CriBgi mice
The nature of test [1]: Amount of feces and cholesterol content in feces. The conditions noted are these: high fat diet, 6 weeks. On the procedure: Seventy (70) 4-week-old male C57BL/6N/CriBgi mice weighing 14 g were purchased from Orient, and reared in separate cages maintained at 24° C. and relative humidity of 55%, providing light from 08:00 until 20:00. The mice were accustomed while providing a pellet type diet for a week. The mice, which weighed 18.5-18.7 g, were grouped into seven groups by the randomized block design. Each group was given a different diet, as follows.
(§1) Test diets were as follows: “normal diet group”=AIN-76 semisynthetic diet of Teklad (Madison, Wl, USA); “high fat diet group”=normal diet+10% of corn oil and 10% of lard; “test group I”=high fat diet+fucoxanthin extract of Example 1 (fucoxanthin content=0.05%); “test group II”=high fat diet+fucoxanthin extract of Example 1 (fucoxanthin content=0.2%); “test group III”=high fat diet+fucoxanthin extract of Example 2 (fucoxanthin content=0.05%); “test group IV”=high fat diet+fucoxanthin extract of Example 2 (fucoxanthin content=0.2%). The 6 diets (normal diet, high fat diet, and test I, II, III and IV) were given to the animals for 6 weeks. Diet intake was recorded every day, and body weight was measured once a week.
Feces were taken from the mice fed with the test diets for 6 weeks of Reference Example 1. The amount of feces and cholesterol content in the feces were measured.

Test [2] has as its system glucose-6-phosphate dehydrogenase (G6PD). In words: G6PD activity in adipose tissue. As to conditions: high fat diet, 6 weeks.
Text: as §1
(§2) The supernatant was centrifuged again at 12,000×g for 15 minutes. Then, the supernatant was subjected to high-speed centrifuging (Beckman, Optima TLX-120, USA) at 100,000×g for 1 hour. Then, change of the activity of enzymes involved in the synthesis of fatty acid—fatty acid synthase (FAS), glucose-6-phosphate dehydrogenase (G6PD) and malic enzyme (ME)—was measured.
(§3) The G6PD enzyme is an enzyme that supplied reducing energy required for the synthesis of fatty acid. […] G6PD activity was measured at 340 nm by the degree of reduction of NADP^+ to NADPH by G6PD. […] G6PD activity was calculated as nmol of NADPH produced per 1 mg of protein in cell per minute.

Test [3] shares this test system. In words: G6PD activity in liver tissue. As to conditions: high fat diet, 6 weeks.
Text: as §1, §2, §3

A further test relates to β-oxidation. In words: Mitochondrial β-oxidation activity. The conditions noted are these: mitochondrial fraction, high fat diet, 6 weeks.
Text: as §1
Mitochondrial β-oxidation activity was measured from the degree of reduction of NAD to NADH using palmitoyl-CoA. Specifically, 10 μL of mitochondrial fraction was added to a reaction solution containing 50 mM Tris-HCl (pH 8.0), 20 mM NAD, 0.33 M DTT, 1.5% BSA (1.5 g/100 mL), 2% Triton X-100 (2 g/100 mL), 10 mM CoA, 1 mM FAD, 100 mM KCN and 5 mM palmitoyl-CoA to initiate reaction. Then, change of absorbance was measured at 37° C. and 340 nm for 5 minutes. β-Oxidation activity was calculated as nmol of NADH produced per 1 mg of mitochondrial protein per minute.

The next test has as its system CPT mRNA. In words: Expression of mRNA for CPT in adipose tissue (real-time PCR). As to conditions: normal diet = 1.00, GAPDH internal marker.
Text: as §1
(§4) 5 mL of Trizol was added to 0.5 g of white adipose tissue. After pulverizing in liquid nitrogen using a mortar, the tissue was added to 1 mL of chloroform. […] The isolated RNA was diluted and absorbance was measured at 260 nm using a UV spectrometer. […]
(§5) Thus prepared cDNA was […] 10-fold, and primers for analyzing the expression of the respective genes (CPT, β-oxidation, FAS, ME and G6PD) were obtained from Genotech (Daejeon, Korea). […] Fluorescence signals were monitored for each cycle and threshold cycle (Cr) was analyzed for quantitative analysis of mRNA for the test groups (Applied Biosystems, SDS7000) (Livak, 2001). […]
(Quantitative PCR measures a nucleic acid by following its amplification.)

A further test deals with G6PD mRNA. In words: Expression of mRNA for G6PD in adipose tissue (real-time PCR). The conditions noted are these: normal diet = 1.00, GAPDH internal marker.
Text: as §1, §4, §5

Test [4] concerns lipoprotein lipase (LPL) mRNA. In words: Expression of mRNA for LPL in liver tissue (real-time PCR).
[5] abbreviates: fucoxanthin content 0.05% (Test I/III).
[6] abbreviates: fucoxanthin content 0.2% (Test II/IV).

Marks after values point to notes of the source that are not given here.

Turning to `CC(=O)O[C@H]1CC(C)(C)C(=C=C/C(C)=C/C=C/C(C)=C/C=C/C=C(C)/C=C/C=C(\C)C(=O)C[C@@]23O[C@]2(C)C[C@@H](O)CC3(C)C)[C@](C)(O)C1` [highly pure fucoxanthin, Fucoxanthin], the Amount of feces was 0.226 ± 0.01^c g/day in test [1] (setting [5]) and 0.209 ± 0.01^bc g/day in test [1] (setting [6]). Besides, the “Cholesterol content in feces” value in test [1] (setting [5]) is reported as 237.88 ± 10.39^c umol/g; in test [1] (setting [6]), 508.79 ± 13.25^c umol/g. In addition, the G6PD activity in test [2] (setting [5]) is reported as 1.25 ± 0.27^a mmol/min/mg protein; in test [2] (setting [6]) it was 1.27 ± 0.15^a mmol/min/mg protein; in test [3] (setting [5]), 51.53 ± 4.31^a mmol/min/mg protein; in test [3] (setting [6]) it was 50.51 ± 3.74^a mmol/min/mg protein. In addition, the β-Oxidation activity in the test with β-oxidation (setting [5]) is reported as 9.46 ± 2.56^bc mmol/min/mg protein; in the test on β-oxidation (setting [6]) it was 13.28 ± 3.79^c mmol/min/mg protein. Moreover, the “Expression of mRNA, CPT” value was 1.65 ± 0.15^c in the test on CPT mRNA (setting [5]) and 1.51 ± 0.06^bc in the test on CPT mRNA (setting [6]). Also, the “Expression of mRNA, G6PD” value is 1.10 ± 0.15^abc in the test with G6PD mRNA (setting [5]) and 0.67 ± 0.04^a in the test on G6PD mRNA (setting [6]). Moreover, the “Expression of mRNA, LPL” value in test [4] (normal diet = 1.00, fucoxanthin content 0.05% (Test I/III)) was 2.11 ± 0.09^b; in test [4] (normal diet = 1.00, fucoxanthin content 0.2% (Test II/IV)), 1.20 ± 0.14^a.
